Like-named read-outs stand apart in the source and are kept apart here. Ends that are not written are not given here.
Columns and labels:
MRTF-A [1] = experiment: MRTF-A subcellular localisation by immunofluorescence; assay type: cell-based, mouse; conditions: for effect of inhibitor on TPA block of serum-induced MRTF-A nuclear accumulation / inhibition of TPA-induced MRTF-A nuclear accumulation: U0126 10 μM, Gö6976 2 μM, Gö6983 6 μM; for effect of inhibitor on TPA block of serum-induced MRTF-A nuclear accumulation: TPA then 15% FCS; for inhibition of TPA-induced MRTF-A nuclear accumulation: pretreated 20 min
Method: (§1) NIH3T3 cells were cultured in DMEM, 10% FCS.
(§2) For immunofluorescence ([Vartiainen et al., 2007]), NIH3T3 cells were transfected in six-well plates (150000 /well), with 50 ng pEF-Flag-MRTF-PK derivatives, 100 ng pEF-MRTF-A derivatives, 50 ng MEK-R4F, 100 ng RafER, using Lipofectamine 2000 (Invitrogen).
(§3) Data was processed using GraphPad Prism version 5.03.

ERK = ERK activation immunoblot; assay type: cell-based; conditions: inhibitor pretreatment 20 min, 100 ng/ml TPA 30 min
Method: as §1, §3

[2] = system: F-actin assembly in NIH3T3 cells; experiment: F- and G-actin quantitation (F:G ratio); assay type: cell-based, mouse; conditions: n = 3; for effect of inhibitor on TPA inhibition of F-actin assembly: inhibitor 20 min, TPA 20 min, 15% FCS 20 min
Method: Cells were processed as described ([Vartiainen et al., 2007]) with modifications. G- and F-actin were detected using 0.3 μM DN'ase I-Alexa Fluor 488 conjugate and 5 U/ml Alexa Fluor 647-phalloidin (Molecular Probes). After three washes in PBS, cells were analysed using the Cellomics ArrayScan. For each experiment, six technical replicates were performed. Statistical significance of alterations in F:G ratio was estimated by one-way ANOVA (Dunnett's multiple comparison test).

PKC isoforms = conditions: 2 μM Gö6976; ref Martiny-Baron et al., 1993; cited from earlier work
Method: as §1

MRTF-A [3] = experiment: MRTF-A phosphorylation (SDS-PAGE mobility, immunoblot); assay type: cell-based, mouse; conditions: for inhibition of MRTF-A phosphorylation by PKC inhibitor: inhibitor pretreatment 20 min, 100 ng/ml TPA 30 min
Method: as §1, §3

MRTF-A [4] = experiment: Site-specific MRTF-A phosphorylation (phosphospecific antibody immunoblot); assay type: cell-based, mouse; conditions: for S33 phosphorylation / S98 phosphorylation: 100 ng/ml TPA, U0126 10 μM; for phosphorylation at analysed phospho-sites: 2 μM CD or 100 ng/ml TPA, sites analysed with phosphospecific antibodies
Method: as §1, §3

MEK = conditions: 10 μM U0126; ref Bain et al., 2007; cited from earlier work
Method: as §1

MRTF-SRF target genes = conditions: 100 ng/ml TPA, 0.25-3 hr; n = 2
RhoA = conditions: 100 ng/ml TPA, then 15% FCS
Method: RhoGTP pull-downs used Rho activation assay (Millipore) with modifications. Cells were grown in 15 cm dishes, washed twice in ice-cold TBS, scraped in 400 μl 2x lysis buffer with 16% glycerol, made to 800 μl with water, and clarified. 20 μl was retained as input, and the remainder incubated with 20 μl GST-Rhotekin for 45 min at 4°C. After three 1 ml washes with Lysis buffer, proteins were eluted with SDS loading buffer and Rho recovery assessed by immunoblotting.

MLC2 = MLC2 S19; 100 ng/ml TPA, then 15% FCS
MRTF-A(2–204)-PK = MRTF-A(2–204)-PK subcellular localisation by immunofluorescence; assay type: cell-based, mouse; conditions: TPA
Method: as §1, §2, §3

G-actin = molecular target: T1, G-actin (Oryctolagus cuniculus, UniProt P68135); experiment: Size exclusion chromatography of G-actin / Spacer1-RPEL2 peptide complexes; assay type: binding; conditions: SEC, Spacer1-RPEL2 peptides; for apparent molecular mass of G-actin complex: Superdex 200, 20 mM Tris (pH 8), 100 mM NaCl; for apparent stoichiometry of G-actin binding: Superdex 200, pH 8
T1 construct: Actin was prepared as described ([Mouilleron et al., 2008]); from tissue; host or cells: rabbit skeletal muscle (own knowledge of the cited method)
Method: Peptides were synthesised by the London Research Institute (LRI) peptide synthesis platform. MRTF-A(94–142), FAM-MRTF-A(62–104) and FAM-MRTF-A(67–98) derivatives are as in Figure 4—figure supplement 2A. Phosphorylated 10–12 mer peptides for immunizations were centred on the phosphoacceptor site (see Table 1). Actin was prepared as described ([Mouilleron et al., 2008]).
Preparation of LatB-actin and fluorescence polarisation anisotropy assay were described ([Guettler et al., 2008]). Size exclusion chromatography was on Superdex 200 column equilibrated in 20 mM Tris (pH 8), 100 mM NaCl, 3 mM MgCl2, 0.2 mM EGTA, 0.3 mM TCEP [(tris(2-carboxyethyl)phosphine)], 5% (v/v) glycerol, calibrated with globular proteins of known molecular weight.

[5] = system: RevΔ MRTF-A GFP derivatives (Crm1-dependent NES); experiment: RevΔGFP nuclear export assay; assay type: cell-based; conditions: 50 nM LMB
MRTF-A [6] = conditions: LatB; ref Vartiainen et al., 2007; cited from earlier work
[7] = 100 ng/ml TPA 20 min, then 15% FCS 20 min
[8] = NIH3T3 cells, 100 ng/ml TPA, 2 μM CD or 50 nM LMB

**Q.** Which results are given for `Cn1c2ccccc2c2c3c(c4c5ccccc5n(CCC#N)c4c21)CNC3=O` [Gö6976]?
**A.** effect of inhibitor on TPA block of serum-induced MRTF-A nuclear accumulation (MRTF-A [1]): insensitive to U0126 and Gö6976; inhibition of TPA-induced MRTF-A nuclear accumulation (MRTF-A [1]; 100 ng/ml TPA): sensitive to both the conventional-PKC inhibitor Gö6976 and the pan-PKC inhibitor Gö6983; inhibition of TPA-induced ERK activation (ERK): only the latter completely inhibited ERK activation; effect of inhibitor on TPA inhibition of F-actin assembly [2]: not by U0126 or Gö6976; PKC isoform block (PKC isoforms): insufficient to block non-novel PKC isoforms; inhibition of MRTF-A phosphorylation by PKC inhibitor (MRTF-A [3]): only the latter completely inhibited ERK activation and MRTF-A phosphorylation

**Q.** For `N#CC(=C(/N)Sc1ccccc1N)/C(C#N)=C(/N)Sc1ccccc1N` [U0126], which S33 phosphorylation (MRTF-A [4]) is on record?
**A.** Induced S33 phosphorylation was U0126-sensitive

**Q.** What about the S98 phosphorylation (MRTF-A [4]) of the same molecule?
**A.** U0126-sensitive

**Q.** What about the “effect of inhibitor on TPA block of serum-induced MRTF-A nuclear accumulation” value (MRTF-A [1]) of the same molecule?
**A.** insensitive to U0126 and Gö6976

**Q.** And the “effect of inhibitor on TPA inhibition of F-actin assembly” value [2]?
**A.** not by U0126 or Gö6976

**Q.** And the “MEK inhibition and selectivity” value (MEK)?
**A.** sufficient to inhibit MEK activation without substantial effects on other kinases

**Q.** Which results are given for `CCCCCCCCCCCCCC(=O)O[C@@H]1[C@@H](C)[C@@]2(O)[C@@H](C=C(CO)C[C@]3(O)C(=O)C(C)=C[C@@H]23)[C@H]2C(C)(C)[C@]12OC(C)=O` [TPA]?
**A.** induction of transcription of MRTF-SRF target genes (MRTF-SRF target genes): induced transcription of MRTF-SRF target genes in an ERK-dependent manner; S33 phosphorylation (MRTF-A [4]): could be slightly increased upon serum or TPA stimulation; S98 phosphorylation (MRTF-A [4]): by TPA in a U0126-sensitive fashion; phosphorylation at analysed phospho-sites (MRTF-A [4]): induced a gradual accumulation at all analysed sites; serum-induced accumulation of Rho.GTP (RhoA): inhibited serum-induced accumulation of Rho.GTP; inhibition of serum-induced MRTF-A nuclear accumulation by TPA pretreatment (MRTF-A [1]; [7]): effectively blocked MRTF-A nuclear accumulation upon subsequent serum stimulation; proportion of cells with predominantly nuclear MRTF-A (MRTF-A [1]; 100 ng/ml TPA, 20 min): substantially increased the proportion of cells with predominantly nuclear MRTF-A; serum-induced phosphorylation of MLC2 (MLC2): inhibited serum-induced accumulation of Rho.GTP, and phosphorylation of MLC2, independently of ERK but in a PKC-dependent manner; serum-induced F-actin assembly [2, 7]: inhibited serum-induced F-actin assembly; nuclear accumulation of MRTF-A(2–204)-PK (MRTF-A(2–204)-PK): promoted nuclear accumulation of MRTF-A(2–204)-PK; MRTF-A phosphorylation (MRTF-A [3]): also induced MRTF-A phosphorylation

**Q.** For “S1-R2 WT: Spacer1-RPEL2 peptide (LKLKRARLADDLNEKIAQRPGPMELVEKNILPVESSLKEAIIVGQVNYP; UniProt Q8K4J6 94-142, looked up, fragment)”, which “apparent molecular mass of G-actin complex” value (G-actin) is on record?
**A.** 70.9 kDa

**Q.** What about the “apparent stoichiometry of G-actin binding” value (G-actin) of the same molecule?
**A.** 1.5 actins

**Q.** What does the source list for `CCC(=C/[C@H](C)C/C=C/C(C)=C/[C@@H](C)C(=O)[C@@H](C)[C@H](O)[C@@H](C)C/C(C)=C/C(=O)O)/C=C/[C@@H]1OC(=O)C=C[C@@H]1C` [Leptomycin B]?
**A.** nuclear localisation of RevΔMRTF-A derivatives [5]: Nuclear localisation could be restored by serum stimulation, or by treatment with Leptomycin B (LMB); nuclear localisation of RevΔMRTF-A derivatives ([5]; listed as LMB): both proteins accumulated in the nucleus upon LMB treatment; MRTF-A phosphorylation (MRTF-A [3]; [8]): did not induce phosphorylation unless the cells were simultaneously stimulated with CD or FCS

**Q.** With `C=C1[C@@H](C)[C@H]2[C@H](Cc3ccccc3)NC(=O)[C@]23[C@H](OC(C)=O)/C=C/[C@@](C)(O)C(=O)[C@@H](C)C/C=C/[C@H]3[C@@H]1O` [CD, cytochalasin D] as the molecule, how does the “phosphorylation at analysed phospho-sites” value (MRTF-A [4]) read?
**A.** induced a gradual accumulation at all analysed sites

**Q.** What about the “phosphorylation of MRTF-A/MC fusion protein” value (MRTF-A [3]; 2 μM CD) of the same molecule?
**A.** exhibited CD-induced phosphorylation similar to that seen in MRTF-A

**Q.** What about the “ERK dependence of CD-induced MRTF-A phosphorylation” value (MRTF-A [3]; 2 μM CD with and without 10 μM U0126) of the same molecule?
**A.** this occurred independently of ERK

**Q.** What about the “phosphorylation of MRTF-A B2A (NLS mutant)” value (MRTF-A [3]; 15% FCS or 2 μM CD, 10 μM U0126) of the same molecule?
**A.** could be induced by serum, but not CD

**Q.** What about the MRTF-A phosphorylation (MRTF-A [3]; [8]) of the same molecule?
**A.** also induced MRTF-A phosphorylation

**Q.** For `C/C1=C/C(=O)O[C@@H]2C[C@@H](CC[C@H](C)/C=C\CC1)O[C@@](O)([C@@H]1CSC(=O)N1)C2` [LatB, Latrunculin B], which “cytoplasmic localisation of MRTF-A” value (MRTF-A [6]) is on record?
**A.** restore cytoplasmic localisation of MRTF-A

**Q.** What about the “return of serum-induced MRTF-A phosphorylation” value (MRTF-A [3]; NIH3T3, 15% FCS 30 min, then 1 μM LatB) of the same molecule?
**A.** rapid return of MRTF-A phosphorylation to prestimulation levels

**Q.** With `COc1ccc2c(c1)c(C1=C(c3c[nH]c4ccccc34)C(=O)NC1=O)cn2CCCN(C)C` [Gö6983] as the molecule, how does the “effect of inhibitor on TPA block of serum-induced MRTF-A nuclear accumulation” value (MRTF-A [1]) read?
**A.** relieved by Gö6983

**Q.** And the “inhibition of TPA-induced MRTF-A nuclear accumulation” value (MRTF-A [1]; 100 ng/ml TPA)?
**A.** sensitive to both the conventional-PKC inhibitor Gö6976 and the pan-PKC inhibitor Gö6983

**Q.** What about the “inhibition of TPA-induced ERK activation” value (ERK) of the same molecule?
**A.** completely inhibited ERK activation

**Q.** What about the “effect of inhibitor on TPA inhibition of F-actin assembly” value [2] of the same molecule?
**A.** relieved by Gö6983

**Q.** What about the “inhibition of MRTF-A phosphorylation by PKC inhibitor” value (MRTF-A [3]) of the same molecule?
**A.** completely inhibited ERK activation and MRTF-A phosphorylation

**Q.** With “S1-R2 pS98: Spacer1-RPEL2 peptide phosphorylated at S98 (LKLKRARLADDLNEKIAQRPGPMELVEKNILPVESSLKEAIIVGQVNYP; also: phosphorylated at S98, position not located in chain; UniProt Q8K4J6 94-142, looked up, fragment)” as the molecule, how does the “apparent molecular mass of G-actin complex” value (G-actin) read?
**A.** 64.1 kDa

**Q.** And the “apparent stoichiometry of G-actin binding” value (G-actin)?
**A.** 1.4 actins

**Q.** For `CC/C(=C(\c1ccc(O)cc1)c1ccc(OCCN(C)C)cc1)c1ccccc1` [4-hydroxytamoxifen], which “block of serum-induced nuclear accumulation by pre-treatment” value (MRTF-A [1]; Raf-ER cells, 1 μM 4OHT 20 min, then 15% FCS 20 min) is on record?
**A.** Only pre-treatment with TPA significantly blocked serum-induced nuclear accumulation

— PMC4963197, “Phosphorylation acts positively and negatively to regulate MRTF-A subcellular localisation and activity” (eLife, 2016)
